Test results published in ChEMBL document CHEMBL4406848, “Novel water soluble BODIPY compounds: Synthesis, photochemical, DNA interaction, topoisomerases inhibition and photodynamic activity properties” (Eur J Med Chem, 2019).
Active and inactive are the calls of the source. The rule behind the calls is not given here.

Columns and labels:
DNA = assay: Induction of Escherichia coli plasmid pBR322 DNA cleavage assessed as linear form at 50 uM irradiated with light and incubated for 1 hr by agarose gel electrophoresis; type: nucleic-acid assay
HCT-116 = assay: Induction of apoptosis in human HCT116 cells assessed as necrotic cells at 5 uM incubated for 24 hrs in presence of irradiation by annexin V FITC and propidium iodide based flow cytometry (reference value: 0.2 %); type: functional

CC1=CC(/C=C/c2ccc(OCCCc3ccc[n+](C)c3)cc2)=[N+]2C1=C(c1ccc(OCCCc3ccc[n+](C)c3)cc1)c1c(C)cc(/C=C/c3ccc(OCCCc4ccc[n+](C)c4)cc3)n1[B-]2(F)F.[I-].[I-].[I-]
Activity (DNA): inactive
Activity (HCT-116): 10.7%
